Publication PMC10284923 (The ISME Journal, 2023)
Where two headings read alike, the source gives them in different places.

Columns and labels:
[1] = molecular target: Ec_PhnD; conditions: ITC, dash = binding not detected, read-out: Dissociation constant (KD); cited from earlier work
[2] = molecular target: Ec_PhnD; conditions: intrinsic fluorescence, read-out: Dissociation constant (KD); cited from earlier work
[3] = test system: Prochlorococcus MIT9313; conditions: cited from earlier work
[4] = test system: Synechococcus WH8102; type: cell-based
Procedure: (§1) For treatment conditions containing alternative P compounds, 50 µM NaH2PO4 was replaced with 50 µM phosphite (Na2HPO3·5H2O) or methylphosphonate. In P-deplete media, an equal volume of water was added instead of a P compound. Experimental cultures were started from mid-logarithmic cultures grown in phosphate-containing PCR-S11 media. A small inoculum (~100 µL) was used to minimise the transfer of phosphate from stock cultures. Four biological replicates were tested for each experimental condition. Growth was regularly monitored via cell counts using a CytoFLEX S flow cytometer. […] Phosphate concentration in all treatment conditions was monitored regularly for the duration of the experiments using a Phosphate Colorimetric kit following the manufacturer’s instructions (Sigma-Aldrich) with a detection limit of 0.5 µM.

[5] = test system: Synechococcus MITS9220; type: cell-based
Procedure: as §1

[6] = test system: Prochlorococcus MED4; conditions: cited from earlier work
[7] = molecular target: CC9311_PhnD1; type: binding, Synechococcus sp. CC9311; conditions: read-out: Dissociation constant (KD)
[8] = molecular target: WH8102_PhnD1 (Parasynechococcus marenigrum, UniProt Q7U716); type: binding, Synechococcus sp. WH8102; conditions: read-out: Dissociation constant (KD)
Chain of WH8102_PhnD1 (Q7U716 27-306 limits assumed): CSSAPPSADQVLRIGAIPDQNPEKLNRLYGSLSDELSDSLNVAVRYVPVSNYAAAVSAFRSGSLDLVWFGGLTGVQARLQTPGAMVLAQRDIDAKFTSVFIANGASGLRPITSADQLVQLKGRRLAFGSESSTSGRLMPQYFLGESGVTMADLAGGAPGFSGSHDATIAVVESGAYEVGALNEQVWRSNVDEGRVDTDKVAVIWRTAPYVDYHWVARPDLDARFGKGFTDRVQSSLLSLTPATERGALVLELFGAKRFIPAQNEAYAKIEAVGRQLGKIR

[9] = molecular target: Pm_PtxB; conditions: read-out: Dissociation constant (KD); cited from earlier work
[10] = test system: Prochlorococcus MIT9301; conditions: cited from earlier work

Row | Compound | Kd [1] [µM] | Kd [2] [µM] | Growth and utilisation of P source [3] | Growth as sole P source ([4]; 50 µM P source, PCR-S11 medium, cell density by flow cytometry, 49 days) | Growth as sole P source ([5]; 50 µM P source, PCR-S11 medium, cell density by flow cytometry) | Growth and utilisation of P source [6] | Kd [7] [µM] | Growth as sole P source [4] | Growth as sole P source [5] | Kd [8] [µM] | Kd [9] [µM] | Use as sole P source to support growth [10]
1 | NCCP(=O)(O)O [2-AEP, 2-aminoethylphosphonate] | 0.1 | < 0.05 | – | – | – | – | – | – | – | – | – | –
2 | O=P(O)(O)O [Pi, inorganic phosphate] | – | – | only able to utilise Pi for their growth | growth seen | growth seen | only able to utilise Pi for their growth | – | – | – | – | – | –
3 | phosphite [Pt] | – | – | unable to grow and utilise | – | – | unable to grow and utilise | 1.7 ± 0.9 | do not exhibit a clearly defined exponential growth | do not exhibit a clearly defined exponential growth | 4.3 ± 0.5 | 2 | can use Pt or MPn as the sole P source to support its growth
